Entries after “also recorded” stand apart in the source; their conditions may differ.
Experiments:
[1] = target: T1, D2 receptor (Homo sapiens, UniProt P14416); experiment: D2 receptor affinity assay (radioligand competition, 3H-7-OH-DPAT); type: binding; conditions: cloned D2 receptor expressed in HEK293 cell line; 3H-7-OH-DPAT 1 nM
T1 construct: expressed in transfected cells; host or cells: HEK293
Description: (§1) Bioactivity Test • I. D2 receptor affinity assay: The affinity of the compound to D2 receptor was determined by radioligand competition assay, and the cloned D2 receptor was expressed in HEK293 cell line. • II. D2 receptor function assay: The ability of the compound to antagonize the D2 receptor was determined using a calcium mobilization assay (FLIPR). • III. DAT receptor function assay: The ability of the compound to inhibit DAT was determined by neurotransmitter transporter absorption assay.
• Experimental buffer: 50 mM Tris-HCl, pH 7.4, 5 mM MgCl2 • Washing buffer: 50 mM Tris-HCl pH 7.4, stored at 4° C. ready for use.
• The compound and positive control 7-OH-DPAT were serially diluted with DMSO, with the initial concentration of 2 mM and 4 times serial dilution, a total of 10 concentrations. 1 μL was transferred to the designated position of the 96-well plate. • 1 μL droperidol (final concentration 10 μM) was added to the positive control well. 1 μL DMSO was added to the negative control well.
• Receptor cell membrane was diluted to 10 μg/well with corresponding experimental buffer, with 100 μL cell membrane/well.
• 3H-7-OH-DPAT was diluted to 2 nM with corresponding experimental buffer, and the final concentration was 1 nM.
• After 100 μL of cell membrane and isotope were added, respectively, the reaction plate of the D2 receptor was incubated at room temperature for 1 hour. The GF/C filter plate was soaked in 0.3% PEI solution for more than half an hour. After the reaction was completed, the cell membrane was collected on the GF/C filter plate using the […], washed 4 times with cold washing buffer, and then dried in an oven at 50° C. for 1 hour. The dried GF/C filter plate was sealed at the bottom, 50 μL of scintillation fluid was added to each well and the well was sealed. Reads were obtained by MicroBeta and the data was analyzed using GraphPad Prism 5.0.
Ki=IC50/(1+isotope concentration/Kd)

[2] = target: T1, D2 receptor; experiment: D2 receptor function assay, calcium mobilization (FLIPR); type: cell-based; conditions: HEK293, antagonism of D2 receptor
Description: as §1
• Cell line: HEK293 • DMEM medium (Invitrogen) • Fetal bovine serum (FBS, Invitrogen) • L-Glutamine (Invitrogen) G418 (Invitrogen) • Blasticidin (Invitrogen)
• Fluo-4 Direct Kit (Invitrogen)
• 250 mM Probenecid solution was formulated: according to the kit instructions, 1 mL of FLIPR buffer salt solution was added to 77 mg probenecid just before needed. • 2× (8 μM) Fluo-4 Direct™ loading buffer was formulated: the number of tubes in Fluo-4 Direct™ needed for the experiment was melted in advance. Just before needed, 10 ml of FLIPR buffer salt solution and 0.2 mL of 250 mM Probenecid solution were added to each tube and vortexed in dark for more than 5 minutes.
• a) One tube of cells was taken from the liquid nitrogen tank and quickly thawed in 37° C. water bath. • b) The cell suspension was added to a centrifuge tube to which the preheated 20 ml medium was added in advance. • c) The centrifuge tube was centrifuged at 1000 rpm for 5 minutes at room temperature. • d) The supernatant was slowly decanted to avoid affecting the precipitated cells. • e) The cells were resuspended with 10-30 ml medium by pipetting the cells gently with a pipette. • f) The viability and number of cells were calculated with the cell counter. • g) The cells were diluted to 1×10^5 cells/ml with medium, and inoculated in the 384-well polylysine coated cell plate at 20 μL/well. • h) The plate was incubated in an incubator at 5% CO2, 37° C. for 16 to 20 hours.
10 μL of experimental buffer salt solution was added into the cell plate according to the set program, and the fluorescence signal was read. 10 μL of agonist reference compound was further added at a given concentration to the cell plate and the fluorescence signal was read. After reading, the data was derived by “Max-Min” and “Read 90 to Maximum Allowed” methods in the software and EC80 of the corresponding cell line was calculated, and the reference compound with a concentration of 6× EC80 was prepared. • f) The FLIPR instrument software was run. 10 μL of the compound to be tested and the reference compound at a given concentration were added into the cell plate according to the set program, and the fluorescence signal was read. 10 μL of reference compound agonist was further added at a concentration of 6× EC80 to the cell plate and the fluorescence signal was read. • g) Data Analysis • Calculation formula for data in the project:
Inhibitor % activity=100−(signal value per well−average value for high dose control group of inhibitor)/(average value for DMSO control group−average value for high dose control group of inhibitor)*100%.

[3] = system: Amphetamine-induced high locomotor activity in mice; experiment: Amphetamine-induced high locomotor activity (LMA) in mice; type: in vivo; parameters: Distance resulting from the activity, First 30 min / Distance resulting from the activity, Last 30 min: unit not given here; conditions: for Effect on Amphetamine-induced high locomotor activity compared with olanzapine (in words) / Inhibition of Amphetamine-induced high locomotor activity (in words): 5, 10, 20 mg/kg; for Effect on Amphetamine-induced high locomotor activity compared with olanzapine (in words): p.o. vs olanzapine 5.0 mg/kg p.o.; for Inhibition of Amphetamine-induced high locomotor activity (in words): p.o., P<0.05-0.01; for Distance resulting from the activity, First 30 min / Distance resulting from the activity, Last 30 min: Amphetamine 1.0 mg/kg s.c., male ICR mice
Description: The test compound MDC was a milky white powder and stored in a shade and cool place (formulated with 1% DMSO before use). […] Amphetamine, purchased from Sigma-Aldrich, was a white powder (formulated with normal saline before use). 1% DMSO was formulated by diluting pure DMSO (purity>99.5, purchased from Sigma) with normal saline.
Male ICR mice having weight 22±2 g were kept at 8 mice/cage with 12/12 hours light/dark cycle, temperature 23° C.±1° C., humidity 50% to 60%, free to eat and drink water.
The administration volume was 0.1 ml/10 g body weight; Amphetamine was freshly formulated with normal saline at a dose of 1.0 mg/kg and administered subcutaneously.
After one week of acclimation, mice were randomly divided into 6 groups according to their body weight: negative control group, model group, positive control group, and low dose group, medium dose group and high dose group for the test compound. 8-10 animals/group.
Group 1: Negative control group: Normal saline (s.c.)+1% DMSO (10.0 ml/kg, p.o.);
Group 2: Model group: Amphetamine (1.0 mg/kg, s.c.)+1% DMSO (10.0 ml/kg, p.o.);
Group 4: MDC low dose group: Amphetamine (1.0 mg/kg, s.c.)+MDC (5 mg/kg, p.o.);
Group 5: MDC medium dose group: Amphetamine (1.0 mg/kg, s.c.)+MDC (10 mg/kg, p.o.);
Group 6: MDC high dose group: Amphetamine (1.0 mg/kg, s.c.)+MDC (20 mg/kg, p.o.).
After administration, the animals were immediately placed in a locomotor activity box and recorded by Shanghai Jiliang animal video analysis system for 1 hour.
After the experiment, the activity of the animals within 1 hour was analyzed using the trajectory analysis software of Shanghai Jiliang animal video analysis system to obtain the total distance resulting from the activity.

[4] = 5 mg/kg p.o. (low dose group; olanzapine positive control)
[5] = 10 mg/kg p.o. (medium dose group)
[6] = 20 mg/kg p.o. (high dose group)

T1 sequence (P14416 whole entry): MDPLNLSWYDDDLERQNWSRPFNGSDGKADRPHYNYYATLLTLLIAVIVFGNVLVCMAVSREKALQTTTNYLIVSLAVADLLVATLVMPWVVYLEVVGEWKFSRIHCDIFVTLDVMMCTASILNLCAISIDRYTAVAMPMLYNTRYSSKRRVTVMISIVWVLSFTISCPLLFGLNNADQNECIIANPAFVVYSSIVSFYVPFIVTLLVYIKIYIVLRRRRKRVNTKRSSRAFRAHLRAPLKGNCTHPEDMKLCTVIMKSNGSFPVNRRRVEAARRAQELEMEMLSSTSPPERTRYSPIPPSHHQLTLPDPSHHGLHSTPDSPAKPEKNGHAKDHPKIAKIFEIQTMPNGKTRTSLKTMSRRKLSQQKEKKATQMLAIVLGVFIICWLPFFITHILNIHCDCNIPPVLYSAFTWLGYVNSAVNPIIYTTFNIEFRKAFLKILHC

IC50 [1]	IC50 [2]	Structure (SMILES)	Effect on Amphetamine-induced high locomotor activity compared with olanzapine (in words) [3]	Inhibition of Amphetamine-induced high locomotor activity (in words) [3]	Distance resulting from the activity, First 30 min [3, 4]	Distance resulting from the activity, Last 30 min [3, 4]	Distance resulting from the activity, First 30 min [3, 5]	Distance resulting from the activity, Last 30 min [3, 5]	Distance resulting from the activity, First 30 min [3, 6]	Distance resulting from the activity, Last 30 min [3, 6]
120 nM	5.4 nM	O=S(=O)(Nc1cccc(C2CCN(Cc3c[nH]c4ccccc34)C2)c1)c1cccs1 (stereo not shown) [MDC-161502-008, 1-(indole-3-methyl)-3-[3-(2-thiophenesulfonamido)phenyl]pyrrolidine]	equivalent to olanzapine	significantly inhibited	287643	264309	253945	220678	209673	219876
639 nM	171 nM	O=S(=O)(CC(F)(F)F)Nc1cccc(C2CCN(Cc3c[nH]c4ccccc34)C2)c1 (stereo not shown) [MDC-161502-006, 1-(indole-3-methyl)-3-(3-trifluoroethanesulfonamidophenyl)pyrrolidine]	–	–	340368	318973	298763	257632	270378	231584

Structure (SMILES)	IC50 [1]	IC50 [2]	Effect on Amphetamine-induced high locomotor activity compared with olanzapine (in words) [3]	Inhibition of Amphetamine-induced high locomotor activity (in words) [3]	Distance resulting from the activity, First 30 min [3, 4]	Distance resulting from the activity, Last 30 min [3, 4]	Distance resulting from the activity, First 30 min [3, 5]	Distance resulting from the activity, Last 30 min [3, 5]	Distance resulting from the activity, First 30 min [3, 6]	Distance resulting from the activity, Last 30 min [3, 6]
Oc1cccc(C2CCN(Cc3c[nH]c4ccccc34)C2)c1 (racemic) [MDC-161502-002, 1-(indole-3-methyl)-3-(3-hydroxyphenyl)pyrrolidine]	14 nM	2 nM	equivalent to olanzapine; also recorded: better than olanzapine	significantly inhibited	284824	257329	250678	231296	180127	148036

From patent US20210024498A1, “TETRAHYDROPYRROLE COMPOUND, PREPARATION METHOD THEREFOR, PHARMACEUTICAL COMPOSITION CONTAINING SAME, AND USE THEREOF” (MEDICONNS (SHANGHAI) BIOPHARMACEUTICAL CO., LTD, priority 2017, published 2021)
